Data from ChEMBL document CHEMBL5465560, “Selectivity Literature for EUbOPEN Chemogenomic Library” (2024).

Tests used:
[1] = tested on: Epidermal growth factor receptor (Homo sapiens), P00533 [G719C]; assay: (§1) Selectivity interaction (KinomeScan (DiscoverX)) EUB0000229b EGFR; conditions: at 1 µM
[2] = tested on: Epidermal growth factor receptor (Homo sapiens), P00533 [L858R]; assay: as §1; conditions: at 1 µM
[3] = tested on: Epidermal growth factor receptor (Homo sapiens), P00533 [G719S]; assay: as §1; conditions: at 1 µM
[4] = tested on: Epidermal growth factor receptor (Homo sapiens), P00533 [T790M]; assay: as §1; conditions: at 1 µM
[5] = biological target: Epidermal growth factor receptor (Homo sapiens, UniProt P00533); assay: as §1; conditions: at 10 µM
[6] = tested on: Epidermal growth factor receptor (Homo sapiens), P00533 [L858R,T790M]; assay: as §1; conditions: at 1 µM
[7] = tested on: Epidermal growth factor receptor (Homo sapiens), P00533 [UNDEFINED MUTATION]; assay: as §1; conditions: at 1 µM
Epidermal growth factor receptor (Homo sapiens), P00533 [UNDEFINED MUTATION], sequence (P00533 whole entry, looked up, stated change not applied): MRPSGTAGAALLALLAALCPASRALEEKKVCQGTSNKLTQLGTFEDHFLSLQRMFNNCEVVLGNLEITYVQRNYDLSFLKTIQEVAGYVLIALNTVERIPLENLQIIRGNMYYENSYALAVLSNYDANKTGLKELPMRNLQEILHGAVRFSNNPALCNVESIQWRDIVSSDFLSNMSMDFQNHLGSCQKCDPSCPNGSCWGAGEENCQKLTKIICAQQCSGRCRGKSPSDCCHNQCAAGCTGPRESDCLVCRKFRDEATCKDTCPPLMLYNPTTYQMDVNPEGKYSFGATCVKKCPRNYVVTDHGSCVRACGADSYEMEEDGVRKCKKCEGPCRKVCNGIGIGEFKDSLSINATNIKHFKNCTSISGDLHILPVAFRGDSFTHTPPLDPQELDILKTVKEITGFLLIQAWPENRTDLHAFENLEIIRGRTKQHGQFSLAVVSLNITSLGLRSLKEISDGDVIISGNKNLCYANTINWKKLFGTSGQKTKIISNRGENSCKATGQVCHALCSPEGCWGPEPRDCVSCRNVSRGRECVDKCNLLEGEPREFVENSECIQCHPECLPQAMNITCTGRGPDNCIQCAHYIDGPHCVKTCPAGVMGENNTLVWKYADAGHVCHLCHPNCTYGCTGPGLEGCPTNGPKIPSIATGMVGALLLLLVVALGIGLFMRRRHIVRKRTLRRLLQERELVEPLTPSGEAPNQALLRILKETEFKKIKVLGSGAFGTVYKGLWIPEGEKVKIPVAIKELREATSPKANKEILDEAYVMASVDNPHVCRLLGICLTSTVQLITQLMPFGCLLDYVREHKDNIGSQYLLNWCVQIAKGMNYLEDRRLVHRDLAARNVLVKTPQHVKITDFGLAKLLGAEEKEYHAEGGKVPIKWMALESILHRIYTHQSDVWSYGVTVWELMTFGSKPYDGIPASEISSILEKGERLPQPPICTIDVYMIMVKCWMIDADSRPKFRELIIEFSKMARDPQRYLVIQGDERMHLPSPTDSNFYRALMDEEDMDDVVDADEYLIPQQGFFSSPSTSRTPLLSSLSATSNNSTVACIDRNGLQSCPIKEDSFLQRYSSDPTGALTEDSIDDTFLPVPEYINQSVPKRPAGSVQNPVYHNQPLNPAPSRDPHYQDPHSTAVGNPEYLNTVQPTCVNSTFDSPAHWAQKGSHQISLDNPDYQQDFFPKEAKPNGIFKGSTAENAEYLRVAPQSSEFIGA

[8] = tested on: Epidermal growth factor receptor (Homo sapiens), P00533 [L861Q]; assay: as §1; conditions: at 1 µM
[9] = biological target: T1, Serine/threonine-protein kinase Nek3 (Homo sapiens) (UniProt P51956); assay: Selectivity interaction (ProQinase) EUB0000171b NEK3
T1 sequence (whole entry): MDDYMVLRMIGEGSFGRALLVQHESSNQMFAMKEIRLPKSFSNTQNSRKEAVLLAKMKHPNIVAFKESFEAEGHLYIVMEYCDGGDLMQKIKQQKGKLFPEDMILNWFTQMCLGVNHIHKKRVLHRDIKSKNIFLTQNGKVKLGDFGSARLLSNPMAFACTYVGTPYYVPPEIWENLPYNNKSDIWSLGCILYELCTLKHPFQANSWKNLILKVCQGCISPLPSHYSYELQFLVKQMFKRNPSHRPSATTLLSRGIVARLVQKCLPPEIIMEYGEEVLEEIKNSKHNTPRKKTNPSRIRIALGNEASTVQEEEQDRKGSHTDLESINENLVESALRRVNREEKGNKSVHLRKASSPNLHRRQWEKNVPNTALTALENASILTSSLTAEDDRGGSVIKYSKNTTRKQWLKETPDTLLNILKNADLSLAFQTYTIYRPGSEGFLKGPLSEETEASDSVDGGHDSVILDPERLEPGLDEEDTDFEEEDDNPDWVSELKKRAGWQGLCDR

[10] = biological target: T2, Megakaryocyte-associated tyrosine-protein kinase (Homo sapiens) (UniProt P42679); assay: Selectivity interaction (ProQinase) EUB0000171b MATK
T2 sequence (whole entry): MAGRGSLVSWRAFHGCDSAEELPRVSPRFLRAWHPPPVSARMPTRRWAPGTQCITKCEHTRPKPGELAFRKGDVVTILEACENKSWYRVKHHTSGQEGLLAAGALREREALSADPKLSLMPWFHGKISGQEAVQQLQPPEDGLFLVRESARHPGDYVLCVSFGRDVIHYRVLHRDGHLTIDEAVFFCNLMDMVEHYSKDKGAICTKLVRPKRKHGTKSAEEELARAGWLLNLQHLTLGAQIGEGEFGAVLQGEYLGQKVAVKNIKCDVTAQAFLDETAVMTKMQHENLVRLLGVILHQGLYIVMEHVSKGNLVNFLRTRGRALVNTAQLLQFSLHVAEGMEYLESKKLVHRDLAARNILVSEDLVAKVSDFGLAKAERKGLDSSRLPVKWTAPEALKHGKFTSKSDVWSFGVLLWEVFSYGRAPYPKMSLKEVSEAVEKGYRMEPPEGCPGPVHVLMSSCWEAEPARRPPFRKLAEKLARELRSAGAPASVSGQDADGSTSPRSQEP

Aurora kinase B = Aurora kinase B (Homo sapiens, UniProt Q96GD4); assay: Selectivity interaction (Kinase panel (DSF assay)) EUB0001559a AURKB
[11] = biological target: Serine/threonine-protein kinase 33 (Homo sapiens) (UniProt Q9BYT3); assay: Selectivity interaction (KinomeScan (DiscoverX)) EUB0001079a STK33; conditions: at 1 µM
Serine/threonine-protein kinase 33 (Homo sapiens), sequence (Q9BYT3 whole entry, looked up): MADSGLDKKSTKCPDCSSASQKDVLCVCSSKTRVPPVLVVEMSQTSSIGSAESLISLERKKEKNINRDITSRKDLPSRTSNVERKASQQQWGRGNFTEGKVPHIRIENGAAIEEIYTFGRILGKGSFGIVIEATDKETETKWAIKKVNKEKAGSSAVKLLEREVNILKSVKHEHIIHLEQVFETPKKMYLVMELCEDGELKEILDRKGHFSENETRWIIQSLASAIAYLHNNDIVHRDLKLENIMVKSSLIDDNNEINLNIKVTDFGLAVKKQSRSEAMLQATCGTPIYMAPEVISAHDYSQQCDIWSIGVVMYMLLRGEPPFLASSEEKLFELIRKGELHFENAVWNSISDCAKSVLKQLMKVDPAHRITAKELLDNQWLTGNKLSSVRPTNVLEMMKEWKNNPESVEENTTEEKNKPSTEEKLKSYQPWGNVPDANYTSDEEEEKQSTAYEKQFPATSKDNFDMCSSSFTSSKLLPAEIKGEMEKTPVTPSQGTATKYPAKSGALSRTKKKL

[12] = biological target: Dual specificity tyrosine-phosphorylation-regulated kinase 1B (Homo sapiens, UniProt Q9Y463); assay: Selectivity interaction (KinomeScan (DiscoverX)) EUB0001079a DYRK1B; conditions: at 1 µM
Dual specificity tyrosine-phosphorylation-regulated kinase 1B, sequence (Q9Y463 whole entry, looked up): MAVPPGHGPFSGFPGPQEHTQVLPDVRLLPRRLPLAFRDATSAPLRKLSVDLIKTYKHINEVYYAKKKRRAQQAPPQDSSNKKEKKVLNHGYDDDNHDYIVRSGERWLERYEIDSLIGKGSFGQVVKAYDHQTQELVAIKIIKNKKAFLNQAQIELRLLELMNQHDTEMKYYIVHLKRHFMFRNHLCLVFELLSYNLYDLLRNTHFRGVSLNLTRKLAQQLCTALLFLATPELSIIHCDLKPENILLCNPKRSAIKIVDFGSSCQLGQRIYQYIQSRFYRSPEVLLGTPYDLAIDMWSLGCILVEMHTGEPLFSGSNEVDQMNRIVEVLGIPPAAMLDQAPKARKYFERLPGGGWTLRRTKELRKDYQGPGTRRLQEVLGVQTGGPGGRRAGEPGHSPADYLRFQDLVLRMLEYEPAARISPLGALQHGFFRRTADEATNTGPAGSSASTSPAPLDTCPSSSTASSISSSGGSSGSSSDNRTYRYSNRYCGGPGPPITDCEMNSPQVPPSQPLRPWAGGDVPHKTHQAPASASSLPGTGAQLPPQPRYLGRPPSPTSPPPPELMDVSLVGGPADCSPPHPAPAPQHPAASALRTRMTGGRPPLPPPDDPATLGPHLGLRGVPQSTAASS

[13] = biological target: Serine/threonine-protein kinase pim-2 (Homo sapiens, UniProt Q9P1W9); conditions: at 10 µM
[14] = biological target: Histone-lysine N-methyltransferase, H3 lysine-36 specific (Homo sapiens) (UniProt Q96L73); assay: Selectivity interaction (PWWP, WD40, and Tudor domain panel (DSLS measurements, literature)) EUB0000270b NSD1
[15] = biological target: T3, Serine/threonine-protein kinase 4 (Homo sapiens) (UniProt Q13043); assay: Selectivity interaction (SelectScreen profiling (Invitrogen)) EUB0000607a STK4; conditions: at 2 µM
T3 sequence (whole entry): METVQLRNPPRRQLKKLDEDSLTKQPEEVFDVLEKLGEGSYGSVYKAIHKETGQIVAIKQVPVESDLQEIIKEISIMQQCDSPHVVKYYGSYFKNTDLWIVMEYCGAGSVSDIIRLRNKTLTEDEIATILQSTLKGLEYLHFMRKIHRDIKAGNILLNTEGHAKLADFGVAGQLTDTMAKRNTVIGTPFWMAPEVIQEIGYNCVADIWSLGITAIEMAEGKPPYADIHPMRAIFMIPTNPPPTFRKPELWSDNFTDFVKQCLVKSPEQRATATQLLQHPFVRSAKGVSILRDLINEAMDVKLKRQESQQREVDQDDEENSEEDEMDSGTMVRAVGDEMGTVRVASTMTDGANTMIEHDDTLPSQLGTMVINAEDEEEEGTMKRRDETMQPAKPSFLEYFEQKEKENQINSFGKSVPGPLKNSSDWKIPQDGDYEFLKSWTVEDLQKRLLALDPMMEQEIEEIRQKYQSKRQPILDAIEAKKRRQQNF

[16] = biological target: T4, Casein kinase I isoform alpha-like (Homo sapiens) (UniProt Q8N752); assay: Selectivity interaction (KinomeScan (DiscoverX)) EUB0000607a CSNK1A1L; conditions: at 10 µM
T4 sequence (whole entry): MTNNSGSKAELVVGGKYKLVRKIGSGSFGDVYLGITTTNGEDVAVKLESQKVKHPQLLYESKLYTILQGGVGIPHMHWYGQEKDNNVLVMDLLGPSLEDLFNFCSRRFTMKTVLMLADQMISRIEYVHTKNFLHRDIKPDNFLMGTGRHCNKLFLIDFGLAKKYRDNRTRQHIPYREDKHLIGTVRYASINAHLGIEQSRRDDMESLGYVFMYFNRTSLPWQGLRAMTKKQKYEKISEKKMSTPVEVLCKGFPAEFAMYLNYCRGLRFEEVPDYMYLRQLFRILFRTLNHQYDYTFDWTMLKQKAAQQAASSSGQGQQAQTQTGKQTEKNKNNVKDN

[17] = biological target: Fibroblast growth factor receptor 4 (Homo sapiens, UniProt P22455); conditions: at 10 µM
Fibroblast growth factor receptor 4, sequence (P22455 22-802 limits assumed): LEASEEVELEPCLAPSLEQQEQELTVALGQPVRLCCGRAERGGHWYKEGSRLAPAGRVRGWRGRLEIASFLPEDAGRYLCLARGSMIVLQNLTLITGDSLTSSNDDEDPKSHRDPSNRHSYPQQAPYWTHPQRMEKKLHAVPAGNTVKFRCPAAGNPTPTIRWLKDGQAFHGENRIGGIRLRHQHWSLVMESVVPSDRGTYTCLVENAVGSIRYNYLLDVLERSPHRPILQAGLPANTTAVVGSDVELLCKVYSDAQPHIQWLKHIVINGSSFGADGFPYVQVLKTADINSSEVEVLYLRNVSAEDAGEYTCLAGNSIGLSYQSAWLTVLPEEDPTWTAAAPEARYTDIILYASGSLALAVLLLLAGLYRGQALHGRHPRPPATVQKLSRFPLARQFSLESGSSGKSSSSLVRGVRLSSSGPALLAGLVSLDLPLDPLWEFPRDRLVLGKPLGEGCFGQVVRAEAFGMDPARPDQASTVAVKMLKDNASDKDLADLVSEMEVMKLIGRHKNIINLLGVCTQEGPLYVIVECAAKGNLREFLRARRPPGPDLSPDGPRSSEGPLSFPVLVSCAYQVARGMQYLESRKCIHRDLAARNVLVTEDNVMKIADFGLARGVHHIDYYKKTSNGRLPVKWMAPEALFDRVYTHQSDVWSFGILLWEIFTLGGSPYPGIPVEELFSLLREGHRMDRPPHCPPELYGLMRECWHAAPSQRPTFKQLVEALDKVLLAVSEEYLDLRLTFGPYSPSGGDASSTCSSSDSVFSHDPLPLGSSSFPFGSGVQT

[18] = biological target: RAC-alpha serine/threonine-protein kinase (Homo sapiens, UniProt P31749); assay: Selectivity interaction (KinomeScan (DiscoverX)) EUB0000618a AKT1; conditions: at 10 µM
RAC-alpha serine/threonine-protein kinase, sequence (P31749 whole entry): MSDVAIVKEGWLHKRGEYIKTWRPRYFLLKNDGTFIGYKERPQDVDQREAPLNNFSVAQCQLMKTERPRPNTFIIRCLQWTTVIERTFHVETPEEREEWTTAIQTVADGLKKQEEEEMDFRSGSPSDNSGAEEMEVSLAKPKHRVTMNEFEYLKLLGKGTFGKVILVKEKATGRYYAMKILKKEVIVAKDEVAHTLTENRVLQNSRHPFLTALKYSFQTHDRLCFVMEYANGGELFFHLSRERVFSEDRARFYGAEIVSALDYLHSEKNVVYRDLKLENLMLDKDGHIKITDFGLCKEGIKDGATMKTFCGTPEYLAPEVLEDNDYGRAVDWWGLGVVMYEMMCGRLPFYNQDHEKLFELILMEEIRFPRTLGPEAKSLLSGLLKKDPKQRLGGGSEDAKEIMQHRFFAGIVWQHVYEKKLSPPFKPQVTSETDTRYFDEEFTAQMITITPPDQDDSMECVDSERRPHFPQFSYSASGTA

[19] = biological target: cAMP-dependent protein kinase catalytic subunit beta (Homo sapiens) (UniProt P22694); assay: Selectivity interaction (Ambit KINOMEscan and KiNATiv profiling in Jurkat cells) EUB0000090b PRKACB; format: cell-based; conditions: at 1 µM

Epidermal growth factor receptor (Homo sapiens), P00533 [L858R], sequence (P00533 whole entry L858R): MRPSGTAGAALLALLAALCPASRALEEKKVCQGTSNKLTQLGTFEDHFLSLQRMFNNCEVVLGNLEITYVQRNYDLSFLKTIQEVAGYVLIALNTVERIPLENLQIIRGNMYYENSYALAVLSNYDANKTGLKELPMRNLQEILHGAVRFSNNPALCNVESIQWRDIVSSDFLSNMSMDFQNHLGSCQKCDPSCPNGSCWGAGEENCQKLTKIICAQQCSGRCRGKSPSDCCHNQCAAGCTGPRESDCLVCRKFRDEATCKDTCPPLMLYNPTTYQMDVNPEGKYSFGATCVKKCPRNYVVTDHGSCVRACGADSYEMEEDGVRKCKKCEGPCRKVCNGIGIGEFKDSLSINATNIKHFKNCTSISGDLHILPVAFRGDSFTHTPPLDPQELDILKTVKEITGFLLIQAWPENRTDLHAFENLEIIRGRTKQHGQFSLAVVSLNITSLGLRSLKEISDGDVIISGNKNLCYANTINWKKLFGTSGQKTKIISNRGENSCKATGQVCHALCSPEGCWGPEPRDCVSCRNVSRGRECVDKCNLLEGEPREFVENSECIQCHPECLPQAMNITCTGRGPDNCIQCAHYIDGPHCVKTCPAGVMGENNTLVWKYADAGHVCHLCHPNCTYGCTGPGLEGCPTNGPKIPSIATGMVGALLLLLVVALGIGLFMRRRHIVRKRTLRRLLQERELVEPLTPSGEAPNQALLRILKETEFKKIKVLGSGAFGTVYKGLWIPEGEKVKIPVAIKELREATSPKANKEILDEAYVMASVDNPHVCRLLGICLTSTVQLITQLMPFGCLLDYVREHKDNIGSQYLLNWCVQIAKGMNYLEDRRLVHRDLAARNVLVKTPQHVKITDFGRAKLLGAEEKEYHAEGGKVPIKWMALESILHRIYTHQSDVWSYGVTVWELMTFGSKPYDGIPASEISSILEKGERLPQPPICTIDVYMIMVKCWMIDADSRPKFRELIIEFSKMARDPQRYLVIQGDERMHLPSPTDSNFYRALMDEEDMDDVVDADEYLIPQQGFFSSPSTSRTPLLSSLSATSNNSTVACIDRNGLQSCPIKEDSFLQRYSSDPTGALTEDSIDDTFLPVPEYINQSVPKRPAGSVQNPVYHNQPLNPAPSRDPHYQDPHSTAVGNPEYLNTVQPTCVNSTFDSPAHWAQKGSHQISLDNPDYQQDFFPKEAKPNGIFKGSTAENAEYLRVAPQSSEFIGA

## COc1cc(N(C)c2ccnc3ccc(C(F)(F)F)cc23)cc(OC)c1OC
[1]
  % binding: 92%
[2]
  % binding: 99%
[3]
  % binding: 92%
[4]
  % binding: 100%
[5]
  % binding: 96%
[6]
  % binding: 86%
[7]
  % binding: 84%
[8]
  % binding: 97%

## C=CC(=O)Nc1cccc(C(=O)Nc2ccc(Nc3cc(-c4[nH]c(SC)nc4C)ccn3)cc2)c1
[9]; at 1 µM
  % of control: 73%
[9]; at 5 µM
  % of control: 50%
[10]; at 1 µM
  % of control: 92%
[10]; at 5 µM
  % of control: 111%

## CN(C(=O)c1cnn2cccnc12)c1cc2c(cc1N1CCOCC1)C(=O)N(C[C@@H](F)C(C)(C)O)C2
Aurora kinase B
  dTM: -1.6 K

## Nc1cnc(N2CCc3cc(S(=O)(=O)Nc4c(F)cc(Cl)cc4F)cc(N4CCCC4=O)c32)nc1 [TP-020n]
[11]
  % of control: 80%
[12]
  % of control: 100%

## Cc1cc([C@@H](C)Nc2ccccc2C(=O)O)c2nc(N3CCOCC3)cc(=O)n2c1 [AZD-6482]
[13]
  % of control: 70%

## Cc1cc(CN)cc(C)c1-c1ncn(C)c1-c1cncn1C
[14]
  dTagg: 0.1 K

## CNC(=O)Nc1ccc(-c2nc(N3CC4CCC(C3)O4)c3cnn(C4CCC5(CC4)OCCO5)c3n2)cc1
[15]
  % of inhibition: 12%
[16]
  % of control: 100%

## COCC(=O)NC/C=C/c1ccc2ncnc(Nc3ccc(Oc4ccc(C)nc4)c(C)c3)c2c1 [CP-724714]
[17]
  % of control: 100%

## O[C@H]1CC[C@H](Nc2ncc3nc(Nc4c(F)cc(F)cc4F)n([C@H]4CCOC4)c3n2)CC1
[18]
  % of control: 72%

## CN(C)C/C=C/C(=O)Nc1ccc(C(=O)N2CCCC(Nc3ncc(Cl)c(-c4c[nH]c5ccccc45)n3)C2)cc1 (configuration not stated)
[19]
  % of control: 90%
